In patent US11162129B2, “Photoprotective mixtures as imaging reagents in sequencing-by-synthesis” (IsoPlexis Corporation, priority 2016, dated 2021):

Description: Components in various photoprotective imaging mixtures as described herein have been tested for solubility and stability against precipitation and discoloration in imaging solution formulation using […] as the base buffer.

Compound	optimal concentration window in imaging solution formulation [mM]
CCOC(=O)c1ccc(O)c(O)c1 [3,4-Dihydroxybenzoic Acid Ethyl Ester, 3,4-dihydroxybenzoic acid ethyl ester]	10 to 20
C[N+](C)(C)CC(O)CC(=O)[O-] (stereo not drawn) [Carnitine, carnitine]	5 to 50
Cc1c(C)c2c(c(C)c1O)CCC(C)(C(=O)O)O2 (stereo not drawn) [Trolox, 6-hydroxy-2,5,7,8-tetramethylchromane-2-carboxylic acid]	5 to 15
